Measured values reported in ChEMBL document CHEMBL1140175, “Synthesis and evaluation of novel boron-containing complexes of potential use for the selective treatment of malignant melanoma” (J Med Chem, 2008).
The source made the active and inactive calls. The calls are words filed in the database; no cut-off is given here.

How the values were obtained:
[1] = target: T1, Tyrosinase (Agaricus bisporus) (UniProt O42713); experiment: Binding affinity to mushroom tyrosinase assessed as […]
T1 sequence (whole entry): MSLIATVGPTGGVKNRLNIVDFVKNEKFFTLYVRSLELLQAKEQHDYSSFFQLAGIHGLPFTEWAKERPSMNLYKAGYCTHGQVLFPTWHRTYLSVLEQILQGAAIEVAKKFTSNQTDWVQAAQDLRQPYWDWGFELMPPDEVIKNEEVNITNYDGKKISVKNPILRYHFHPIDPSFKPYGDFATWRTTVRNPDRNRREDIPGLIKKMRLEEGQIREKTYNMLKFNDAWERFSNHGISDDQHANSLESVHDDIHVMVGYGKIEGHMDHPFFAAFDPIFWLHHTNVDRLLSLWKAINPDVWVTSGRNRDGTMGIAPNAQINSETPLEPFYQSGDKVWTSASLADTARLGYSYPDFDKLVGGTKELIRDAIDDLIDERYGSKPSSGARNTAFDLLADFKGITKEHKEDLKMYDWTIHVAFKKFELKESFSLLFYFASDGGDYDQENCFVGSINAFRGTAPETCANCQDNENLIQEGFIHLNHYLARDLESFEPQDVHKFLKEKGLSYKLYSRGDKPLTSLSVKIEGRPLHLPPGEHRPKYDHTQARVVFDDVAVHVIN

[2] = Cellular uptake in human SK-MEL-23 cells assessed as boron content at 50 uM after 2 hrs relative to control; format: ADME, cell-based
[3] = Cellular uptake in human SK-MEL-23 cells assessed as boron content at 50 uM after 6 hrs relative to control; format: ADME, cell-based
[4] = Cellular uptake in human SK-MEL-23 cells assessed as boron content at 50 uM relative to control; format: ADME, cell-based
[5] = Cytotoxicity against human SK-MEL-23 cells assessed as LDH release up to 100 uM after 6 hrs by colorimetric assay; format: functional
MCF7 = experiment: Cytotoxicity against human MCF7 cells assessed as LDH release up to 100 uM after 6 hrs by colorimetric assay; format: functional

Activity [1] | Activity [2] | Activity [3] | Activity [4] | Compound | Activity [5] | Activity (MCF7)
Active | 50% | > 50% | Not Active | O=C1O[B-]2([NH2+][C@H]1Cc1ccc(O)cc1)C1CCCC2CCC1 (some centres undefined) | <5% | <5%
Active | – | – | – | O=C1O[B-]2([NH2+][C@H]1Cc1ccc(O)c(O)c1)C1CCCC2CCC1 (some centres undefined) | – | –
inactive | – | – | – | O=C1O[B-]2([NH2+][C@H]1Cc1c[nH]c3ccc(O)cc13)C1CCCC2CCC1 (some centres undefined) | – | –
inactive | – | – | – | O=C1O[B-]2([NH2+][C@H]1Cc1ccccc1)C1CCCC2CCC1 (some centres undefined) | – | –
